18 compounds from US20260217708A1, “FUSED BENZAZEPINE DERIVATIVES FOR USE IN THE TREATMENT OF CANCER AND EPILEPSY” (UCB BIOPHARMA SRL, priority 2023, published 2026) can be followed below.

Assay [1] concerns the target T1, system Xc^− (Homo sapiens, UniProt Q9UPY5).
T1 sequence (Q9UPY5 1-501): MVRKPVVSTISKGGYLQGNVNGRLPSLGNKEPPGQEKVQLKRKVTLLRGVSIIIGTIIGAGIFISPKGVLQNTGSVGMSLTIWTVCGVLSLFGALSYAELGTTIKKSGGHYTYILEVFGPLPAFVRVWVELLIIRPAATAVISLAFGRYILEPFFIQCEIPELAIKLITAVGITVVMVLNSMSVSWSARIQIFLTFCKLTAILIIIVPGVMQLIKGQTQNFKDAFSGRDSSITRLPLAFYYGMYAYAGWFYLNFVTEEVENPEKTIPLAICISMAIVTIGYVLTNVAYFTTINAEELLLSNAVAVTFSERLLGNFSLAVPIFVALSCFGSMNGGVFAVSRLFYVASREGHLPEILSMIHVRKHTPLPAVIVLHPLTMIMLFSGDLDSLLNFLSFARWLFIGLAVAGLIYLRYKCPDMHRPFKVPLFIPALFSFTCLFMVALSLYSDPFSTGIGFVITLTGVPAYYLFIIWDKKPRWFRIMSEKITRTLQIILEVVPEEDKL
T1 sequence (P08195 1-529 partner): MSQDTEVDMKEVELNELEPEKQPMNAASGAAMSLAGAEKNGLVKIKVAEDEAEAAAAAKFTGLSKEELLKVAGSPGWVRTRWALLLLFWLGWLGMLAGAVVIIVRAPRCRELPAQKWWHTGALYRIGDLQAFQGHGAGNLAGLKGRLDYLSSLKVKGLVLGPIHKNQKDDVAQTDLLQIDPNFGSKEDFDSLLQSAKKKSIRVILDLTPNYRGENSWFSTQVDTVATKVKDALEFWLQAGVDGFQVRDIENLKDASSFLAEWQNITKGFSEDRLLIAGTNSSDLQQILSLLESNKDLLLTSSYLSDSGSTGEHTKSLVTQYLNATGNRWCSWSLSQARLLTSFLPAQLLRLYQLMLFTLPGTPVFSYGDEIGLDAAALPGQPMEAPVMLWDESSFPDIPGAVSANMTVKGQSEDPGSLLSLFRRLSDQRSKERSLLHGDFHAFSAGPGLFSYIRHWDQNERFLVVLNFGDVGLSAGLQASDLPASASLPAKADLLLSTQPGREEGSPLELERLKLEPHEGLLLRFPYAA
The assay can be described thus: Cystine-induced glutamate release assay. In kind it is cell-based. Further details: endogenous in cells; host or cells: H4 cells. The note with it: H4 cells, sodium-free HEPES buffer, 50 μM L-Cystine, 2 hours, Amplex Red glutamate readout; read-out: pIC50 Cystine-induced glutamate release assay (converted). The gist of the method:
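H4 cells in sodium-free HEPES buffer (pH 7.4), 2 days after plating; glutamate release induced with 50 μM L-cystine plus compound (1% DMSO), 2 h at 37 °C. Supernatant glutamate measured by Amplex Red fluorescence; IC50/pIC50 derived between 1% DMSO and 50 μM erastin controls.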

For assay [2], the target named is T1, system Xc^−. The assay can be described thus: [^14C]L-Cystine uptake assay. The class given is cell-based. Further details: endogenous in cells; host or cells: H4 cells. The settings on record: H4 cells, sodium-free HEPES buffer, 0.5 μM L-[14C]Cystine and 4.5 μM L-Cystine, 1 hour at 37° C.; read-out: pIC50 [^14C] L-Cystine uptake assay (converted). A digest of the protocol: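 H4 cells at 5×10^4 cells/well in sodium-free HEPES buffer were preincubated 15 min with compounds (1% DMSO). Uptake of 0.5 μM [14C]L-cystine plus 4.5 μM unlabelled L-cystine ran 1 hour at 37° C on scintillating plates. IC50 was set between 1% DMSO and 50 μM Erastin controls and expressed as pIC50.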

With `Cc1cc2c(c(=O)n1C)-c1ccccc1C(C)C(=O)N2CC(=O)Nc1ccc(Cl)c(F)c1` (single isomer, unassigned) [#219, Enantiomer (7S) or (7R) of N-(4-chloro-3-fluoro-phenyl)-2-[2,3,7-trimethyl-1,6-dioxo-7H-pyrido[4,3-d][3]benzazepin-5-yl]acetamide], the IC50 on system Xc^− [1] and on system Xc^− [2] was below 15.8 nM in each case.
As for `CC1C(=O)N(CC(=O)Nc2ccc(C(F)F)cc2)c2cc(N3CC(F)(F)C3)nc(F)c2-c2ccc(F)cc21` (single isomer, unassigned) [#291, 2-[3-(3,3-difluoroazetidin-1-yl)-1,9-difluoro-7-methyl-6-oxo-7H-pyrido[4,3-d][3]benzazepin-5-yl]-N-[4-(difluoromethyl)phenyl]acetamide], the IC50 on system Xc^− [1] is below 15.8 nM; on system Xc^− [2] it was 15.8 to 39.8 nM.
Regarding `O=C(CN1C(=O)Cc2ccncc2-c2cnc(Cl)cc21)Nc1ccc(C(F)(F)F)cc1` [#11, 2-(5-chloro-9-oxo-4,8,14-triazatricyclo[9.4.0.0^2,7]pentadeca-1(11),2(7),3,5,12,14-hexaen-8-yl)-N-[4-(trifluoromethyl)phenyl]acetamide], the IC50 on system Xc^− [1] and at system Xc^− [2] was 100 to 501 nM in each case.
Consider `Cc1cc2c(c(F)n1)-c1cncnc1[C@@H](C)C(=O)N2CC(=O)Nc1ccc(C(F)(F)F)cc1` (single isomer, unassigned) [#202, Enantiomer (8R) or (8S) of 2-[15-fluoro-8,13-dimethyl-9-oxo-4,6,10,14-tetrazatricyclo[9.4.0.0^2,7]pentadeca-1(15),2(7),3,5,11,13-hexaen-10-yl]-N-[4-(trifluoromethyl)phenyl]acetamide], for which the IC50 is 39.8 to 100 nM at system Xc^− [1] and 15.8 to 39.8 nM at system Xc^− [2].
On to `Cc1cc2c(n(C)c1=O)-c1ccnn1C(C)C(=O)N2CC(=O)Nc1ccc(Cl)c(F)c1` (stereo not drawn) [#353, N-(4-chloro-3-fluoro-phenyl)-2-(7,12,14-trimethyl-8,13-dioxo-5,6,9,14-tetrazatricyclo[8.4.0.0^2,6]tetradeca-1(10),2,4,11-tetraen-9-yl)acetamide], for which the IC50 at system Xc^− [1] was 15.8 to 39.8 nM; at system Xc^− [2], 39.8 to 100 nM.
The corresponding values for `Cc1cc2c(c(Cl)n1)-c1cccnc1CC(=O)N2CC(=O)Nc1ccc(C(F)(F)F)cc1` [#97, 2-(3-chloro-5-methyl-9-oxo-4,8,12-triazatricyclo[9.4.0.0^2,7]pentadeca-1(11),2(7),3,5,12,14-hexaen-8-yl)-N-[4-(trifluoromethyl)phenyl]acetamide] are 39.8 to 100 nM and below 15.8 nM.
For the compound `CC1C(=O)N(CC(=O)Nc2ccc(Cl)c(F)c2)c2cc(OCCO)nc(F)c2-c2cccnc21` (stereo not drawn) [#375, N-(4-chloro-3-fluoro-phenyl)-2-[3-fluoro-5-(2-hydroxyethoxy)-10-methyl-9-oxo-4,8,12-triazatricyclo[9.4.0.0^2,7]pentadeca-1(15),2,4,6,11,13-hexaen-8-yl]acetamide], the IC50 on system Xc^− [1] and on system Xc^− [2] was below 15.8 nM throughout.
As to `Cc1cc2c(c(F)n1)-c1ncccc1C(C)C(=O)N2CC(=O)Nc1ccc(Cl)c(F)c1` (single isomer, unassigned) [#401, N-(4-chloro-3-fluoro-phenyl)-2-[15-fluoro-8,13-dimethyl-9-oxo-3,10,14-triazatricyclo[9.4.0.0^2,7]pentadeca-1(15),2,4,6,11,13-hexaen-10-yl]acetamide], the IC50 at system Xc^− [1] and on system Xc^− [2] was below 15.8 nM in each case.
For the compound `O=C(CN1C(=O)Cc2cc(F)ccc2-c2c1cc(N1CC(F)(F)C1)nc2F)Nc1ccc(C(F)F)cc1` [#296, 2-[3-(3,3-difluoroazetidin-1-yl)-1,9-difluoro-6-oxo-7H-pyrido[4,3-d][3]benzazepin-5-yl]-N-[4-(difluoromethyl)phenyl]acetamide], the figures for the IC50 on system Xc^− [1] and at system Xc^− [2] were 39.8 to 100 nM and 15.8 to 39.8 nM, respectively.
The like results for `O=C(CN1C(=O)Cc2ncccc2-c2c1cc(N1CC3(C1)CC3(F)F)nc2F)Nc1ccc(C(F)F)cc1` [#421, 2-[5-(2,2-difluoro-5-azaspiro[2.3]hexan-5-yl)-3-fluoro-9-oxo-4,8,12-triazatricyclo[9.4.0.0^2,7]pentadeca-1(11),2(7),3,5,12,14-hexaen-8-yl]-N-[4-(difluoromethyl)phenyl]acetamide] were, in that order, 15.8 to 39.8 nM and 15.8 to 39.8 nM.
The corresponding values for `Cc1cc2c(c(F)n1)-c1cccnc1C(C)C(=O)N2CC(=O)Nc1ccc(C2CC2)c(F)c1` (stereo not drawn) [#135, N-(4-cyclopropyl-3-fluoro-phenyl)-2-(3-fluoro-5,10-dimethyl-9-oxo-4,8,12-triazatricyclo[9.4.0.0^2,7]pentadeca-1(11),2(7),3,5,12,14-hexaen-8-yl)acetamide] are 15.8 to 39.8 nM and below 15.8 nM.
The like results for `Cc1cc2c(c(F)n1)-c1cccnc1[C@@H](C)C(=O)N2CC(=O)Nc1ccc(Cl)c(Cl)c1` [#150, N-(3,4-dichlorophenyl)-2-[(10R)-3-fluoro-5,10-dimethyl-9-oxo-4,8,12-triazatricyclo[9.4.0.0^2,7]pentadeca-1(11),2(7),3,5,12,14-hexaen-8-yl]acetamide] were, in that order, 39.8 to 100 nM and 15.8 to 39.8 nM.
Turning to `Cc1cc2c(c(F)n1)-c1ccnn1C(C)C(=O)N2CC(=O)Nc1ccc(C(F)F)cc1` (single isomer, unassigned) [#221, Enantiomer (7S) or (7R) of N-[4-(difluoromethyl)phenyl]-2-[14-fluoro-7,12-dimethyl-8-oxo-5,6,9,13-tetrazatricyclo[8.4.0.0^2,6]tetradeca-1(14),2,4,10,12-pentaen-9-yl]acetamide], the results for the IC50 on system Xc^− [1] and on system Xc^− [2] were 39.8 to 100 nM and 100 to 501 nM, respectively.
With `CCc1nc(C)cc2c1-c1ccccc1CC(=O)N2CC(=O)Nc1ccc(C(F)(F)F)cc1` [#72, 2-(1-ethyl-3-methyl-6-oxo-7H-pyrido[4,3-d][3]benzazepin-5-yl)-N-[4-(trifluoromethyl)phenyl]acetamide], the results for the IC50 at system Xc^− [1] and at system Xc^− [2] were 39.8 to 100 nM and 15.8 to 39.8 nM, respectively.
The corresponding values for `CC1C(=O)N(CC(=O)Nc2ccc(Cl)c(F)c2)c2cc(C(F)F)ccc2-c2cccnc21` (stereo not drawn) [#341, N-(4-chloro-3-fluoro-phenyl)-2-[9-(difluoromethyl)-5-methyl-6-oxo-5H-pyrido[2,3-d][1]benzazepin-7-yl]acetamide] are 15.8 to 39.8 nM and 39.8 to 100 nM.
The corresponding values for `Cc1cc2c(cc1C#N)-c1cc(F)cnc1C(C)C(=O)N2CC(=O)Nc1ccc(C(F)F)cc1` (single isomer, unassigned) [#420, 2-[10-cyano-2-fluoro-5,9-dimethyl-6-oxo-5H-pyrido[2,3-d][1]benzazepin-7-yl]-N-[4-(difluoromethyl)phenyl]acetamide] are below 15.8 nM and below 15.8 nM.
On to `CC1C(=O)N(CC(=O)Nc2ccc(Cl)c(F)c2)c2cccc(F)c2-c2cccnc21` (single isomer, unassigned) [#409, N-(4-chloro-3-fluoro-phenyl)-2-[11-fluoro-5-methyl-6-oxo-5H-pyrido[2,3-d][1]benzazepin-7-yl]acetamide], for which the IC50 on system Xc^− [1] and on system Xc^− [2] was 15.8 to 39.8 nM each time.
In the case of `Cc1cc2c(c(C)n1)-c1ccc(F)cc1CC(=O)N2CC(=O)Nc1ccc(C(F)(F)F)cc1` [#65, 2-(9-fluoro-1,3-dimeth-yl-6-oxo-7H-pyrido[4,3-d][3]benzazepin-5-yl)-N-[4-(trifluorometh-yl)phenyl]acetamide], the IC50 at system Xc^− [1] is 15.8 to 39.8 nM; at system Xc^− [2] it was below 15.8 nM.
